Measurements published in patent publication EP2582674B1 (Cymabay Therapeutics, Inc., priority 2010, dated 2011).

These molecules were tested against T1, human GPR120 (Homo sapiens, UniProt Q5NUL3) (assay: Intracellular Ca2+ assay in human GPR120 stable cell line (FLIPR Calcium 4 dye, Flexstation)). Conditions: % activity at 2.5 µM compared to the maximal activity of the compound of Example 25 at 2.5 µM (=100%); HEK293 cells co-expressing Gqi5.
T1 construct: host or cells: HEK293 cells co-expressing Gqi5
T1 sequence (Q5NUL3 1-361): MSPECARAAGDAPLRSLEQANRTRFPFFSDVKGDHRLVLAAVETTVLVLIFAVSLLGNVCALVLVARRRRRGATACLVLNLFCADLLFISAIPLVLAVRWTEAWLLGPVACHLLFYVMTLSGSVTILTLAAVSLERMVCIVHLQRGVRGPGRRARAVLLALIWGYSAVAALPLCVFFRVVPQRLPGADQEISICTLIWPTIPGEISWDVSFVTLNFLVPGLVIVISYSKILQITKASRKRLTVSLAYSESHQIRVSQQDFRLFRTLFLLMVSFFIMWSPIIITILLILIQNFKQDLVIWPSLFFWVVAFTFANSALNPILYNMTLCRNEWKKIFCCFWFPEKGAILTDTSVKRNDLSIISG
Type: cell-based

| % Activity (Ex. 25 Reference Compound) [%] | Molecule |
| --- | --- |
| 158.08 | 2-(4-((5-fluoro-3H-spiro[benzofuran-2,1'-cyclopentane]-7-yl)methoxy)phenyl)cyclopropanecarboxylic acid [Example 165] |

Same assay, conditions: HEK293, % activity at 2.5 µM compared to the maximal activity of the compound of Example 25 at 2.5 µM (=100%); HEK293 cells co-expressing Gqi5; read-out: % Activity (Ex. 25 Reference Compound)

| activity at 2.5 µM [%] | Molecule |
| --- | --- |
| 143 | Cc1cc(OCc2cc(F)cc3c2OC(C)(C)C3)c(F)cc1CCC(=O)O [Example 214, 3-(5-fluoro-4-((5-fluoro-2,2-dimethyl-2,3-dihydrobenzofuran-7-yl)methoxy)-2-methylphenyl)propanoic acid] |
| 114 | CC1(C)Cc2cc(F)cc(COc3ccc(CCC(=O)O)c4c3CCCC4)c2O1 [Example 218, 3-(4-((5-fluoro-2,2-dimethyl-2,3-dihydrobenzofuran-7-yl)methoxy)-5,6,7,8-tetrahydronaphthalen-1-yl)propanoic acid] |
| 75.9 | CC(Cc1ccc(OCc2cc(-n3cnnn3)cc3c2OC(C)(C)C3)cc1)C(=O)O (stereo not drawn) [Example 90, 3-(4-((2,2-dimethyl-5-(1H-tetrazol-1-yl)-2,3-dihydrobenzofuran-7-yl)methoxy)phenyl)-2-methylpropanoic acid] |
| 78.5 | CCOC(Cc1cc(F)c(OCc2cc(F)cc3c2OC(C)(C)C3)c(F)c1)C(=O)O (stereo not drawn) [Example 69, 3-(3,5-difluoro-4-((5-fluoro-2,2-dimethyl-2,3-dihydrobenzofuran-7-yl)methoxy)phenyl)-2-ethoxypropanoic acid] |
| 79.6 | CC(Cc1ccc(OCc2cc(F)cc3c2OCOC3)cc1)C(=O)O (stereo not drawn) [Example 45, 3-(4-((6-fluoro-4H-benzo[d][1,3]dioxin-8-yl)methoxy)phenyl)-2-methylpropanoic acid] |
| 103 | CC1(C)Cc2cc(F)cc(COc3ccc(CC(=O)O)cc3)c2O1 [Example 133, 2-(4-((5-fluoro-2,2-dimethyl-2,3-dihydrobenzofuran-7-yl)methoxy)phenyl)acetic acid] |
| 121 | CC(Cc1ccc(OCc2ccc(F)c3c2CC(C)(C)O3)cc1)C(=O)O (stereo not drawn) [Example 91, 3-(4-((7-fluoro-2,2-dimethyl-2,3-dihydrobenzofuran-4-yl)methoxy)phenyl)-2-methylpropanoic acid] |
| 16.7 | CC(Cc1cc(F)c(OCc2cccc3cn[nH]c23)c(F)c1)C(=O)O (stereo not drawn) [Example 260, 3-(4-((1H-indazol-7-yl)methoxy)-3,5-difluorophenyl)-2-methylpropanoic acid] |
| 116 | CC1(C)Cc2cc(Cl)cc(COc3c(F)cc(C4CC4CC(=O)O)cc3F)c2O1 (stereo not drawn) [Example 41, 2-(2-(4-((5-chloro-2,2-dimethyl-2,3-dihydrobenzofuran-7-yl)methoxy)-3,5-difluorophenyl)cyclopropyl)acetic acid] |
| 159 | COc1cc(CCC(=O)O)ccc1OCc1cc(F)cc2c1OC(C)(C)C2 [Example 173, 3-(4-((5-fluoro-2,2-dimethyl-2,3-dihydrobenzofuran-7-yl)methoxy)-3-methoxyphenyl)propanoic acid] |
| 172 | CC1(C)Cc2cc(F)cc(COc3ccc(CCCC(=O)O)cc3)c2O1 [Example 160, 4-(4-((5-fluoro-2,2-dimethyl-2,3-dihydrobenzofuran-7-yl)methoxy)phenyl)butanoic acid] |
| 148 | COc1cc(OCc2cc(Cl)cc3c2OC2(CCCC2)C3)ccc1CCC(=O)O [Example 194, 3-(4-((5-chloro-3H-spiro[benzofuran-2,1'-cyclopentane]-7-yl)methoxy)-2-methoxyphenyl)propanoic acid] |
| 141 | CC1(C)Cc2cc(F)cc(COc3ccc(CCC(=O)O)c(OC(F)(F)F)c3)c2O1 [Example 136, 3-(4-((5-fluoro-2,2-dimethyl-2,3-dihydrobenzofuran-7-yl)methoxy)-2-(trifluoromethoxy)phenyl)propanoic acid] |
| 5.98 | CC1(C)Cc2cc(F)cc(COc3ccc4c(CC(=O)O)cc(=O)oc4c3)c2O1 [Example 263, 2-(7-((5-fluoro-2,2-dimethyl-2,3-dihydrobenzofuran-7-yl)methoxy)-2-oxo-2H-chromen-4-yl)acetic acid] |
| 105 | CC1(C)Cc2cc(Cl)cc(COc3ccc4c(c3)CC[C@@H]4CC(=O)O)c2O1 [Example 179, (R)-2-(5-((5-chloro-2,2-dimethyl-2,3-dihydrobenzofuran-7-yl)methoxy)-2,3-dihydro-1H-inden-1-yl)acetic acid] |
| 104 | CC1(C)Cc2cc(F)cc(COc3ccc(C4CC4C(=O)O)cc3)c2O1 (stereo not drawn) [Example 131A, 2-(4-((5-fluoro-2,2-dimethyl-2,3-dihydrobenzofuran-7-yl)methoxy)phenyl) cyclopropanecarboxylic acid] |
| 114 | Cc1cc(OCc2cc(F)cc3c2OC(C)(C)C3)ccc1CCC(=O)O [Example 46, 3-(4-((5-fluoro-2,2-dimethyl-2,3-dihydrobenzofuran-7-yl)methoxy)-2-methylphenyl)propanoic acid] |
| 51.5 | CC(Cc1cc(F)c(OCc2cc(OCc3ccccc3)cc3c2OC(C)(C)C3)c(F)c1)C(=O)O (stereo not drawn) [Example 111, 3-(4-((5-(benzyloxy)-2,2-dimethyl-2,3-dihydrobenzofuran-7-yl)methoxy)-3,5-difluorophenyl)-2-methylpropanoic acid] |
| 90.6 | C[C@H](Cc1ccc(OCc2cc(Cl)cc3c2OC(C)(C)C3)c(C(F)(F)F)c1)C(=O)O [Example 143, (R)-3-(4-((5-chloro-2,2-dimethyl-2,3-dihydrobenzofuran-7-yl)methoxy)-3-(trifluoromethyl)phenyl)-2-methylpropanoic acid] |
| 104 | Cc1cc2cc(Cl)cc(COc3ccc(CC(C)C(=O)O)cc3F)c2o1 (stereo not drawn) [Example 120, 3-(4-((5-chloro-2-methylbenzofuran-7-yl)methoxy)-3-fluorophenyl)-2-methylpropanoic acid] |
| 139 | CC1(C)Cc2cc(Cl)cc(COc3cc(F)c(CCC(=O)O)c(F)c3)c2O1 [Example 54, 3-(4-((5-chloro-2,2-dimethyl-2,3-dihydrobenzofuran-7-yl)methoxy)-2,6-difluorophenyl)propanoic acid] |
| 144 | CCc1c(CCC(=O)O)ccc(OCc2cc(F)cc3c2OC(C)(C)C3)c1F [Example 216, 3-(2-ethyl-3-fluoro-4-((5-fluoro-2,2-dimethyl-2,3-dihydrobenzofuran-7-yl)methoxy)phenyl)propanoic acid] |

Same assay, conditions: HEK293, % activity at 5 µM compared to the maximal activity of GW9508 at 6.7 µM (=100%); HEK293 cells co-expressing Gqi5; read-out: %Activity (GW9508 Reference Compound)

| activity at 5 µM [%] | Molecule |
| --- | --- |
| 84.5 | CC(Cc1cc(Cl)c(OCc2cc(Cl)cc3c2OC(C)(C)C3)c(Cl)c1)C(=O)O (stereo not drawn) [Example 14, 3-(3,5-dichloro-4-((5-chloro-2,2-dimethyl-2,3-dihydrobenzofuran-7-yl)methoxy)phenyl)-2-methylpropanoic acid] |
| 124 | CC(Cc1cc(F)c(OCc2cccc3c2OCC3)c(F)c1)C(=O)O (stereo not drawn) [Example 3, 3-(4-((2,3-dihydrobenzofuran-7-yl)methoxy)-3,5-difluorophenyl)-2-methylpropanoic acid] |
| 143 | CC(Cc1ccc(OCc2ccc(C(F)(F)F)c3c2OC(C)(C)C3)c(F)c1)C(=O)O (stereo not drawn) [Example 33, 3-(4-((2,2-dimethyl-4-(trifluoromethyl)-2,3-dihydrobenzofuran-7-yl)methoxy)-3-fluorophenyl)-2-methylpropanoic acid] |
| 111 | Cc1cc(COc2ccc(CC(C)C(=O)O)cc2)c2c(c1)CC(C)(C)O2 (stereo not drawn) [Example 4, 2-methyl-3-(4-((2,2,5-trimethyl-2,3-dihydrobenzofuran-7-yl)methoxy)phenyl)propanoic acid] |
| 168 | COc1cc(CC(C)C(=O)O)ccc1OCc1cc(F)cc2c1OC(C)(C)C2 (stereo not drawn) [Example 7, 3-(4-((5-fluoro-2,2-dimethyl-2,3-dihydrobenzofuran-7-yl)methoxy)-3-methoxyphenyl)-2-methylpropanoic acid] |
| 135 | CC(Cc1cc(F)c(OCc2cccc3c2OC(C)(C)CC3)c(F)c1)C(=O)O (stereo not drawn) [Example 2, 3-(4-((2,2-dimethylchroman-8-yl)methoxy)-3,5-difluorophenyl)-2-methylpropanoic acid] |
| 118 | CC(Cc1ccc(OCc2ccc(C(F)(F)F)c3c2OC(C)(C)C3)cc1)C(=O)O (stereo not drawn) [Example 34, 3-(4-((2,2-dimethyl-4-(trifluoromethyl)-2,3-dihydrobenzofuran-7-yl)methoxy)phenyl)-2-methylpropanoic acid] |
| 102 | CC1(C)Cc2cccc(COc3c(F)cc(CCC(=O)O)cc3F)c2O1 [Example 25, 3-(4-((2,2-dimethyl-2,3-dihydrobenzofuran-7-yl)methoxy)-3,5-difluorophenyl)propanoic acid] |

Same assay, conditions: eight concentrations from 0.00001 to 20 µM; changes (Max-Min) of fluorescence intensity

| EC50 [µM] | Molecule |
| --- | --- |
| > 10 | CC(Cc1ccc(OCc2c(F)c(F)cc3c2OC(C)(C)C3)cc1)C(=O)O (stereo not drawn) [Example 43, 3-(4-((5,6-difluoro-2,2-dimethyl-2,3-dihydrobenzofuran-7-yl)methoxy)phenyl)-2-methylpropanoic acid] |
| > 10 | CC(Cc1ccc(OCc2cc(F)cc3c2OCOC3)cc1)C(=O)O (stereo not drawn) [Example 45, 3-(4-((6-fluoro-4H-benzo[d][1,3]dioxin-8-yl)methoxy)phenyl)-2-methylpropanoic acid] |
| 1 to 10 | CC1(C)Cc2cc(F)cc(COc3ccc(CC(=O)O)cc3)c2O1 [Example 133, 2-(4-((5-fluoro-2,2-dimethyl-2,3-dihydrobenzofuran-7-yl)methoxy)phenyl)acetic acid] |
| 1 to 10 | COc1cc(CCC(=O)O)ccc1OCc1cc(F)cc2c1OC(C)(C)C2 [Example 173, 3-(4-((5-fluoro-2,2-dimethyl-2,3-dihydrobenzofuran-7-yl)methoxy)-3-methoxyphenyl)propanoic acid] |
| 1 to 10 | CC(CC(=O)O)Cc1ccc(OCc2cc(Cl)cc3c2OC(C)(C)C3)cc1 (stereo not drawn) [Example 183, 4-(4-((5-chloro-2,2-dimethyl-2,3-dihydrobenzofuran-7-yl)methoxy)phenyl)-3-methylbutanoic acid] |
| 1 to 10 | CC(Cc1cc(F)c(OCc2cc(OCc3ccccc3)cc3c2OC(C)(C)C3)c(F)c1)C(=O)O (stereo not drawn) [Example 111, 3-(4-((5-(benzyloxy)-2,2-dimethyl-2,3-dihydrobenzofuran-7-yl)methoxy)-3,5-difluorophenyl)-2-methylpropanoic acid] |
| > 10 | CC(Cc1ccc(OCc2ccc(C(F)(F)F)c3c2OC(C)(C)C3)cc1)C(=O)O (stereo not drawn) [Example 34, 3-(4-((2,2-dimethyl-4-(trifluoromethyl)-2,3-dihydrobenzofuran-7-yl)methoxy)phenyl)-2-methylpropanoic acid] |

Same assay, conditions: typical value, reference compounds of the Ca2+ assay

| concentration at which activity reached a maximum | Molecule |
| --- | --- |
| approximately 2.5 µM | CC1(C)Cc2cccc(COc3c(F)cc(CCC(=O)O)cc3F)c2O1 [Example 25, 3-(4-((2,2-dimethyl-2,3-dihydrobenzofuran-7-yl)methoxy)-3,5-difluorophenyl)propanoic acid] |
